# Values of other authors in patent US10689462B2, “Therapeutic and imaging compositions and uses thereof” (priority 2013, dated 2020).
# Legend:
# [1] = within 24 h
# [2] = test system: npc1^−/− mice; settings: subcutaneous injection, 4.0 mg/kg of body weight
# [3] = room temperature
substance,measurement,setting,value
hydroxypropyl-β-cyclodextrin [HP-β-CD],Fraction cleared from the bloodstream,[1],> 90%
same,"Effect on survival, hepatopathology and neuropathology",[2],"improvement in their survival, hepatopathology, and neuropathology"
same,Solubility in water,[3],650 mg/mL
